# In the OligoGym collection:
# “And” between values parts separate entries of the source, which are not always exact repeats. Equal values may be shown once. After the bases stand the sugars from the 5' end (letter, count) and the backbone: PS all phosphorothioate, else s phosphorothioate and o phosphodiester by linkage. Methylation of C is not given here. e = 2'-O-(2-methoxyethyl) (MOE); k = constrained ethyl (cEt); d = 2'-deoxy (DNA); m = 2'-O-methyl
# Target: HSD17B13
# Conditions: ASO, HepaRG
Sequence,target mRNA inhibition (1 µM),other results
"CAGATTGGAATGCTAC (sugars k3 d10 k3, PS)",74%,target mRNA inhibition (0.02 µM): 7%; target mRNA inhibition (0.078 µM): 12%; target mRNA inhibition (0.313 µM): 36%; target mRNA inhibition (1.25 µM): 73%; target mRNA inhibition (5 µM): 94%
"CAGAUTATTATGTGAT (sugars k3 d1 m1 d8 k3, PS)",32%,–
"CAGCATCAAGACATTC (sugars k3 d10 k3, PS)",72% and 70%,–
"CAGCATCAAGACATTC (sugars kkdddddddddkekek, PS)",62%,–
"CAGCATTGTAATCTTG (sugars k3 d10 k3, PS)",43%,–
"CAGCCTTAGAGTGAAT (sugars k3 d10 k3, PS)",82%,target mRNA inhibition (0.02 µM): 6%; target mRNA inhibition (0.078 µM): 23%; target mRNA inhibition (0.313 µM): 36%; target mRNA inhibition (1.25 µM): 73%; target mRNA inhibition (5 µM): 83%
"CAGGGTGGTAACGGTG (sugars k3 d9 k3 e1, PS)",39%,–
"CAGGGTGGTAACGGTG (sugars kkdddddddddkekek, PS)",49%,–
"CAGGTTGAGATAAAGC (sugars kkdddddddddkekek, PS)",53%,–
"CAGTCTTAAACCTTCC (sugars k3 d1 m1 d8 k3, PS)",59%,–
"CAGTCTTAAACCTTCC (sugars k3 d9 k3 e1, PS)",74% and 50%,target mRNA inhibition (0.02 µM): 0%; target mRNA inhibition (0.078 µM): 0%; target mRNA inhibition (0.313 µM): 47%; target mRNA inhibition (1.25 µM): 43%; target mRNA inhibition (5 µM): 79%
"CAGTTTTCCTCATGAT (sugars k3 d10 k3, PS)",65%,–
"CATAACTTCATAGTGG (sugars k3 d1 m1 d8 k3, PS)",38%,–
"CATAAGAGCCAAACTG (sugars k3 d10 k3, PS)",27%,–
"CATAATAATAGCTCTA (sugars kkdddddddddkekek, PS)",13%,–
"CATAATCTTGTGCTTG (sugars k3 d10 k3, PS)",37%,–
"CATACCACATACCCAT (sugars k3 d10 k3, PS)",0%,–
"CATAGAACTAGAACTC (sugars k3 d10 k3, PS)",19%,–
"CATAGTTCAAATTGGA (sugars k3 d10 k3, PS)",39%,–
"CATAGTTTATATGGAT (sugars k3 d10 k3, PS)",56%,–
"CATATCAATGCCTTAG (sugars k3 d10 k3, PS)",29%,–
"CATATCTTACTCTGTG (sugars k3 d10 k3, PS)",47%,–
"CATATGTGAAGAGCTG (sugars kkdddddddddkekek, PS)",35%,–
"CATCAAGCCCTTTTCA (sugars k3 d10 k3, PS)",23%,–

Sequence,target mRNA inhibition (1 µM),other results
"CATCTTAAGATACCCA (sugars k3 d9 k3 e1, PS)",76%,target mRNA inhibition (0.02 µM): 0%; target mRNA inhibition (0.078 µM): 23%; target mRNA inhibition (0.313 µM): 38%; target mRNA inhibition (1.25 µM): 64%; target mRNA inhibition (5 µM): 79%
"CATCTTAAGATACCCA (sugars k3 d10 k3, PS)",76%,target mRNA inhibition (0.02 µM): 0%; target mRNA inhibition (0.078 µM): 23%; target mRNA inhibition (0.313 µM): 46%; target mRNA inhibition (1.25 µM): 75%; target mRNA inhibition (5 µM): 90%
"CATCUTAAGATACCCA (sugars k3 d1 m1 d8 k3, PS)",56%,–
"CATGATTAAGCAGAAT (sugars k3 d10 k3, PS)",42%,–
"CATTACATATCAATGC (sugars k3 d10 k3, PS)",29%,–
"CATTAGCAAGCTAAGA (sugars k3 d10 k3, PS)",0%,–
"CATTATCCTTACTCCC (sugars k3 d10 k3, PS)",16%,–
"CATTTGAAGTCTATAC (sugars k3 d10 k3, PS)",21%,–
"CATTTTTAATACGACT (sugars k3 d10 k3, PS)",57%,–
"CCAAACATGGATGTTA (sugars k3 d10 k3, PS)",43%,–
"CCAAAGATGAGAGTCT (sugars k3 d10 k3, PS)",19%,–
"CCAACCAAACTTCCAG (sugars k3 d9 k3 e1, PS)",47%,–
"CCAACCAAACTTCCAG (sugars k3 d10 k3, PS)",70%,–
"CCAACCCAAGCTACCT (sugars k3 d10 k3, PS)",15%,–
"CCAAGTAATTACTTCT (sugars k3 d10 k3, PS)",68%,–
"CCACACTAATGAATCA (sugars k3 d10 k3, PS)",43%,–
"CCACATACGCATGCGC (sugars k3 d10 k3, PS)",68%,target mRNA inhibition (0.02 µM): 3%; target mRNA inhibition (0.078 µM): 1%; target mRNA inhibition (0.313 µM): 43%; target mRNA inhibition (1.25 µM): 63%; target mRNA inhibition (5 µM): 88%
"CCACGATTGTTACATC (sugars k3 d10 k3, PS)",42%,–
"CCACTGGATGGATTTC (sugars k3 d10 k3, PS)",68%,–
"CCAGAATAGAGTTGCA (sugars k3 d10 k3, PS)",62%,–
"CCAGGTTGAGATAAAG (sugars k3 d9 k3 e1, PS)",51%,–
"CCAGGTTGAGATAAAG (sugars kkdddddddddkekek, PS)",55%,–
"CCAGTACAGTTCCTTT (sugars k3 d10 k3, PS)",66%,target mRNA inhibition (0.02 µM): 38%; target mRNA inhibition (0.078 µM): 37%; target mRNA inhibition (0.313 µM): 53%; target mRNA inhibition (1.25 µM): 75%; target mRNA inhibition (5 µM): 89%
"CCAGTAGGTGTGTTTC (sugars k3 d10 k3, PS)",55%,–

Sequence,target mRNA inhibition (1 µM),other results
"CCAGUACAGTTCCTTT (sugars k3 d1 m1 d8 k3, PS)",51%,–
"CCATAATCTTGTGCTT (sugars k3 d10 k3, PS)",32%,–
"CCATAGGACATGGAGA (sugars k3 d10 k3, PS)",68%,target mRNA inhibition (0.02 µM): 7%; target mRNA inhibition (0.078 µM): 12%; target mRNA inhibition (0.313 µM): 31%; target mRNA inhibition (1.25 µM): 76%; target mRNA inhibition (5 µM): 90%
"CCATCATCGATGGAAG (sugars k3 d10 k3, PS)",8%,–
"CCATCTATCAGACTTC (sugars k3 d1 m1 d8 k3, PS)",56%,–
"CCCCAAACATGGATGT (sugars k3 d10 k3, PS)",62%,–
"CCCCTAAGTTATTATC (sugars k3 d10 k3, PS)",33%,–
"CCCTAGATTCTACACT (sugars k3 d10 k3, PS)",22%,–
"CCGAATTATTTCTTGC (sugars k3 d10 k3, PS)",60%,–
"CCGCCCTTAAGTCATT (sugars k3 d10 k3, PS)",53%,–
"CCGTTTTGGGCTAATG (sugars k3 d10 k3, PS)",58%,–
"CCGTTTTGGGCTAATG (sugars kkdddddddddkekek, PS)",72%,target mRNA inhibition (0.02 µM): 0%; target mRNA inhibition (0.078 µM): 4%; target mRNA inhibition (0.313 µM): 36%; target mRNA inhibition (1.25 µM): 52%; target mRNA inhibition (5 µM): 78%
"CCTAAAGGAGATCTGA (sugars k3 d10 k3, PS)",48%,–
"CCTAGTTACAAACCAC (sugars k3 d10 k3, PS)",51%,–
"CCTATATACATCCAAG (sugars kkdddddddddkekek, PS)",61%,–
"CCTAUATACATCCAAG (sugars k3 d1 m1 d8 k3, PS)",39%,–
"CCTCGATCCTATATAC (sugars k3 d9 k3 e1, PS)",11%,–
"CCTCGATCCTATATAC (sugars k3 d10 k3, PS)",31%,–
"CCTCTAAGTTAGCCCC (sugars k3 d10 k3, PS)",97%,–
"CCTGCTGAAACTTGAT (sugars k3 d10 k3, PS)",19%,–
"CCTGTGTTAGCTTTAA (sugars k3 d10 k3, PS)",67%,–
"CCTGTGTTAGCTTTAA (sugars kkdddddddddkekek, PS)",62%,–
"CCTGUGTTAGCTTTAA (sugars k3 d1 m1 d8 k3, PS)",28%,–
"CCTTATGTTATCTCAA (sugars k3 d10 k3, PS)",67%,–

Sequence,target mRNA inhibition (1 µM),other results
"CCTTTAGTTAGAATAG (sugars k3 d10 k3, PS)",37%,–
"CCTTTGTATTTCGCTA (sugars k3 d10 k3, PS)",47%,–
"CCTTTTAACTACCCTC (sugars k3 d10 k3, PS)",22%,–
"CGAATTATTTCTTGCG (sugars k3 d10 k3, PS)",58%,–
"CGATCCTATATACATC (sugars k3 d1 m1 d8 k3, PS)",28%,–
"CGATCCTATATACATC (sugars k3 d9 k3 e1, PS)",29%,–
"CGATCCTATATACATC (sugars k3 d10 k3, PS)",33%,–
"CGATGTGGCCATGATT (sugars k3 d10 k3, PS)",44%,–
"CGATTGTTACATCACC (sugars k3 d10 k3, PS)",47%,–
"CGCCTAAAGGAGATCT (sugars k3 d10 k3, PS)",59%,–
"CGGCCTATTCTTCTGT (sugars k3 d10 k3, PS)",25%,–
"CGGTCACCTTTCATAA (sugars kkdddddddddkekek, PS)",70%,–
"CGTAAAATTGTGTCTC (sugars k3 d10 k3, PS)",43%,–
"CGTAAATATTCTTGAG (sugars k3 d10 k3, PS)",61%,–
"CGTAACCATGCATTAA (sugars k3 d10 k3, PS)",68%,–
"CGTATTTGAGATTCAC (sugars k3 d10 k3, PS)",59%,–
"CGTCAAATAGGGCTGG (sugars k3 d10 k3, PS)",53%,–
"CGTCCAAAAGTGTCCT (sugars k3 d10 k3, PS)",53%,–
"CGTCCTAGGAAACAAA (sugars k3 d10 k3, PS)",45%,–
"CGTTTGACTGCTGCTA (sugars k3 d10 k3, PS)",58%,–
"CTAAAATTGTCTAAAC (sugars k3 d10 k3, PS)",35%,–
"CTAAACATCTCTGGGA (sugars k3 d1 m1 d8 k3, PS)",32%,–
